Measured values taken from patent publication US20040266623A1, “SYNERGISTIC QUINCLORAC HERBICIDAL COMPOSITIONS” (priority 2003, published 2004).

Key:
Experiment in all cases: Greenhouse pot test, postemergent spray, visual control rating converted to percent control
Type in all cases: in vivo
crabgrass = tested on: crabgrass
Procedure, shortened: (§1)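 Percent control derives from a visual 1–9 scale where 1 means no control and 9 plant death, scored from 24 hours through 21 days after treatment. Sprays were applied at 43.46 gallons of solution/acre to greenhouse-grown pots.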

dandelion = tested on: dandelion
Procedure, shortened: as §1

plantain = tested on: plantain
Procedure, shortened: as §1

O=C(O)c1c(Cl)ccc2cc(Cl)cnc12 [Quinclorac, 3,7-dichloro-8-quinolinecarboxylic acid]
11.1%: % Control Crabgrass (crabgrass; Test 4, 7 DAT, 0.18 lbs/A) | % Control Dandelion (dandelion; Test 1, 24 HAT, 0.375 lbs/A) | % Control Dandelion (dandelion; Test 1, 24 HAT, 0.75 lbs/A)
22.2%: % Control Crabgrass (crabgrass; Test 1, 24 HAT, 0.18 lbs/A) | % Control Crabgrass (crabgrass; Test 1, 24 HAT, 0.375 lbs/A) | % Control Crabgrass (crabgrass; Test 1, 24 HAT, 0.75 lbs/A) | % Control Crabgrass (crabgrass; Test 2, 24 HAT, 0.375 lbs/A) | % Control Crabgrass (crabgrass; Test 2, 24 HAT, 0.75 lbs/A) | % Control Crabgrass (crabgrass; Test 4, 7 DAT, 0.375 lbs/A) | % Control Crabgrass (crabgrass; Test 4, 7 DAT, 0.75 lbs/A) | % Control Crabgrass (crabgrass; Test 4, 14 DAT, 0.18 lbs/A) | % Control Dandelion (dandelion; Test 1, 24 HAT, 0.18 lbs/A) | % Control Dandelion (dandelion; Test 2, 24 HAT, 0.18 lbs/A) | % Control Dandelion (dandelion; Test 2, 24 HAT, 0.375 lbs/A) | % Control Dandelion (dandelion; Test 2, 24 HAT, 0.75 lbs/A) | % Control Dandelion (dandelion; Test 4, 7 DAT, 0.18 lbs/A) | % Control Dandelion (dandelion; Test 4, 7 DAT, 0.375 lbs/A) | % Control Dandelion (dandelion; Test 4, 7 DAT, 0.75 lbs/A) | % Control Dandelion (dandelion; Test 4, 14 DAT, 0.18 lbs/A) | % Control Dandelion (dandelion; Test 4, 14 DAT, 0.375 lbs/A) | % Control Dandelion (dandelion; Test 4, 14 DAT, 0.75 lbs/A) | % Control Plantain (plantain; Test 4, 7 DAT, 0.375 lbs/A) | % Control Plantain (plantain; Test 4, 14 DAT, 0.375 lbs/A)
44.4%: % Control Crabgrass (crabgrass; Test 1, 7 DAT, 0.18 lbs/A) | % Control Crabgrass (crabgrass; Test 1, 7 DAT, 0.375 lbs/A) | % Control Crabgrass (crabgrass; Test 1, 7 DAT, 0.75 lbs/A) | % Control Crabgrass (crabgrass; Test 1, 48 HAT, 0.375 lbs/A) | % Control Crabgrass (crabgrass; Test 1, 48 HAT, 0.75 lbs/A) | % Control Crabgrass (crabgrass; Test 2, 72 HAT, 0.18 lbs/A) | % Control Crabgrass (crabgrass; Test 2, 72 HAT, 0.75 lbs/A) | % Control Crabgrass (crabgrass; Test 4, 14 DAT, 0.75 lbs/A)
88.9%: % Control Crabgrass (crabgrass; Test 2, 14 DAT, 0.75 lbs/A) | % Control Dandelion (dandelion; Test 1, 14 DAT, 0.18 lbs/A) | % Control Dandelion (dandelion; Test 2, 7 DAT, 0.18 lbs/A) | % Control Dandelion (dandelion; Test 2, 14 DAT, 0.18 lbs/A) | % Control Dandelion (dandelion; Test 2, 14 DAT, 0.375 lbs/A)
8: Control (1-9) Crabgrass (crabgrass; Test 2, 14 DAT, 0.75 lbs/A) | Control (1-9) Dandelion (dandelion; Test 1, 14 DAT, 0.18 lbs/A) | Control (1-9) Dandelion (dandelion; Test 2, 7 DAT, 0.18 lbs/A) | Control (1-9) Dandelion (dandelion; Test 2, 14 DAT, 0.18 lbs/A) | Control (1-9) Dandelion (dandelion; Test 2, 14 DAT, 0.375 lbs/A)
4: Control (1-9) Crabgrass (crabgrass; Test 1, 7 DAT, 0.18 lbs/A) | Control (1-9) Crabgrass (crabgrass; Test 1, 7 DAT, 0.375 lbs/A) | Control (1-9) Crabgrass (crabgrass; Test 1, 7 DAT, 0.75 lbs/A) | Control (1-9) Crabgrass (crabgrass; Test 1, 48 HAT, 0.375 lbs/A) | Control (1-9) Crabgrass (crabgrass; Test 1, 48 HAT, 0.75 lbs/A) | Control (1-9) Crabgrass (crabgrass; Test 2, 72 HAT, 0.18 lbs/A) | Control (1-9) Crabgrass (crabgrass; Test 2, 72 HAT, 0.75 lbs/A) | Control (1-9) Crabgrass (crabgrass; Test 4, 14 DAT, 0.75 lbs/A)
6: Control (1-9) Dandelion (dandelion; Test 1, 14 DAT, 0.75 lbs/A) | Control (1-9) Dandelion (dandelion; Test 2, 14 DAT, 0.75 lbs/A)
66.7%: % Control Dandelion (dandelion; Test 1, 14 DAT, 0.75 lbs/A) | % Control Dandelion (dandelion; Test 2, 14 DAT, 0.75 lbs/A)
77.8%: % Control Crabgrass (crabgrass; Test 1, 14 DAT, 0.18 lbs/A) | % Control Crabgrass (crabgrass; Test 2, 7 DAT, 0.375 lbs/A) | % Control Crabgrass (crabgrass; Test 2, 7 DAT, 0.75 lbs/A) | % Control Crabgrass (crabgrass; Test 2, 14 DAT, 0.375 lbs/A) | % Control Dandelion (dandelion; Test 1, 14 DAT, 0.375 lbs/A)
3: Control (1-9) Crabgrass (crabgrass; Test 1, 48 HAT, 0.18 lbs/A) | Control (1-9) Crabgrass (crabgrass; Test 2, 7 DAT, 0.18 lbs/A) | Control (1-9) Crabgrass (crabgrass; Test 2, 24 HAT, 0.18 lbs/A) | Control (1-9) Crabgrass (crabgrass; Test 2, 72 HAT, 0.375 lbs/A) | Control (1-9) Crabgrass (crabgrass; Test 4, 14 DAT, 0.375 lbs/A) | Control (1-9) Dandelion (dandelion; Test 1, 7 DAT, 0.18 lbs/A) | Control (1-9) Dandelion (dandelion; Test 1, 7 DAT, 0.375 lbs/A) | Control (1-9) Dandelion (dandelion; Test 1, 7 DAT, 0.75 lbs/A) | Control (1-9) Dandelion (dandelion; Test 1, 48 HAT, 0.18 lbs/A) | Control (1-9) Dandelion (dandelion; Test 1, 48 HAT, 0.375 lbs/A) | Control (1-9) Dandelion (dandelion; Test 1, 48 HAT, 0.75 lbs/A) | Control (1-9) Dandelion (dandelion; Test 2, 7 DAT, 0.375 lbs/A) | Control (1-9) Dandelion (dandelion; Test 2, 7 DAT, 0.75 lbs/A) | Control (1-9) Dandelion (dandelion; Test 2, 72 HAT, 0.375 lbs/A) | Control (1-9) Dandelion (dandelion; Test 2, 72 HAT, 0.75 lbs/A) | Control (1-9) Plantain (plantain; Test 4, 7 DAT, 0.18 lbs/A) | Control (1-9) Plantain (plantain; Test 4, 7 DAT, 0.75 lbs/A) | Control (1-9) Plantain (plantain; Test 4, 14 DAT, 0.18 lbs/A) | Control (1-9) Plantain (plantain; Test 4, 14 DAT, 0.75 lbs/A)
1: Control (1-9) Crabgrass (crabgrass; Test 4, 7 DAT, 0.18 lbs/A) | Control (1-9) Dandelion (dandelion; Test 1, 24 HAT, 0.375 lbs/A) | Control (1-9) Dandelion (dandelion; Test 1, 24 HAT, 0.75 lbs/A)
2: Control (1-9) Crabgrass (crabgrass; Test 1, 24 HAT, 0.18 lbs/A) | Control (1-9) Crabgrass (crabgrass; Test 1, 24 HAT, 0.375 lbs/A) | Control (1-9) Crabgrass (crabgrass; Test 1, 24 HAT, 0.75 lbs/A) | Control (1-9) Crabgrass (crabgrass; Test 2, 24 HAT, 0.375 lbs/A) | Control (1-9) Crabgrass (crabgrass; Test 2, 24 HAT, 0.75 lbs/A) | Control (1-9) Crabgrass (crabgrass; Test 4, 7 DAT, 0.375 lbs/A) | Control (1-9) Crabgrass (crabgrass; Test 4, 7 DAT, 0.75 lbs/A) | Control (1-9) Crabgrass (crabgrass; Test 4, 14 DAT, 0.18 lbs/A) | Control (1-9) Dandelion (dandelion; Test 1, 24 HAT, 0.18 lbs/A) | Control (1-9) Dandelion (dandelion; Test 2, 24 HAT, 0.18 lbs/A) | Control (1-9) Dandelion (dandelion; Test 2, 24 HAT, 0.375 lbs/A) | Control (1-9) Dandelion (dandelion; Test 2, 24 HAT, 0.75 lbs/A) | Control (1-9) Dandelion (dandelion; Test 4, 7 DAT, 0.18 lbs/A) | Control (1-9) Dandelion (dandelion; Test 4, 7 DAT, 0.375 lbs/A) | Control (1-9) Dandelion (dandelion; Test 4, 7 DAT, 0.75 lbs/A) | Control (1-9) Dandelion (dandelion; Test 4, 14 DAT, 0.18 lbs/A) | Control (1-9) Dandelion (dandelion; Test 4, 14 DAT, 0.375 lbs/A) | Control (1-9) Dandelion (dandelion; Test 4, 14 DAT, 0.75 lbs/A) | Control (1-9) Plantain (plantain; Test 4, 7 DAT, 0.375 lbs/A) | Control (1-9) Plantain (plantain; Test 4, 14 DAT, 0.375 lbs/A)
7: Control (1-9) Crabgrass (crabgrass; Test 1, 14 DAT, 0.18 lbs/A) | Control (1-9) Crabgrass (crabgrass; Test 2, 7 DAT, 0.375 lbs/A) | Control (1-9) Crabgrass (crabgrass; Test 2, 7 DAT, 0.75 lbs/A) | Control (1-9) Crabgrass (crabgrass; Test 2, 14 DAT, 0.375 lbs/A) | Control (1-9) Dandelion (dandelion; Test 1, 14 DAT, 0.375 lbs/A)
33.3%: % Control Crabgrass (crabgrass; Test 1, 48 HAT, 0.18 lbs/A) | % Control Crabgrass (crabgrass; Test 2, 7 DAT, 0.18 lbs/A) | % Control Crabgrass (crabgrass; Test 2, 24 HAT, 0.18 lbs/A) | % Control Crabgrass (crabgrass; Test 2, 72 HAT, 0.375 lbs/A) | % Control Crabgrass (crabgrass; Test 4, 14 DAT, 0.375 lbs/A) | % Control Dandelion (dandelion; Test 1, 7 DAT, 0.18 lbs/A) | % Control Dandelion (dandelion; Test 1, 7 DAT, 0.375 lbs/A) | % Control Dandelion (dandelion; Test 1, 7 DAT, 0.75 lbs/A) | % Control Dandelion (dandelion; Test 1, 48 HAT, 0.18 lbs/A) | % Control Dandelion (dandelion; Test 1, 48 HAT, 0.375 lbs/A) | % Control Dandelion (dandelion; Test 1, 48 HAT, 0.75 lbs/A) | % Control Dandelion (dandelion; Test 2, 7 DAT, 0.375 lbs/A) | % Control Dandelion (dandelion; Test 2, 7 DAT, 0.75 lbs/A) | % Control Dandelion (dandelion; Test 2, 72 HAT, 0.375 lbs/A) | % Control Dandelion (dandelion; Test 2, 72 HAT, 0.75 lbs/A) | % Control Plantain (plantain; Test 4, 7 DAT, 0.18 lbs/A) | % Control Plantain (plantain; Test 4, 7 DAT, 0.75 lbs/A) | % Control Plantain (plantain; Test 4, 14 DAT, 0.18 lbs/A) | % Control Plantain (plantain; Test 4, 14 DAT, 0.75 lbs/A)
55.6%: % Control Crabgrass (crabgrass; Test 1, 14 DAT, 0.375 lbs/A) | % Control Crabgrass (crabgrass; Test 1, 14 DAT, 0.75 lbs/A) | % Control Crabgrass (crabgrass; Test 2, 14 DAT, 0.18 lbs/A) | % Control Dandelion (dandelion; Test 2, 72 HAT, 0.18 lbs/A)
5: Control (1-9) Crabgrass (crabgrass; Test 1, 14 DAT, 0.375 lbs/A) | Control (1-9) Crabgrass (crabgrass; Test 1, 14 DAT, 0.75 lbs/A) | Control (1-9) Crabgrass (crabgrass; Test 2, 14 DAT, 0.18 lbs/A) | Control (1-9) Dandelion (dandelion; Test 2, 72 HAT, 0.18 lbs/A)
